Source: patent US8883504B2, “Cell differentiation suppressing agent, method of culturing cells using the same, culture solution, and cultured cell line” (Asahi Kasei Kabushiki Kaisha, priority 2003, dated 2014)

Columns and labels:
Oct-3/4 gene = Oct-3/4 gene expression level by real time PCR (ES cell differentiation inhibition assay 2); assay type: cell-based, mouse; conditions: D3ES cells, 7 days
Method: For the D3ES cells prepared by the method described in (3) preparation of a mouse ES cell of Example 1, 8×10^4 cells were seeded in a 10 cm-diameter cell culture dish coated previously with a 0.1% aqueous gelatin solution to make 10 mL of the ES cell assay medium. 1 mL of the differentiation inhibiting agent A to F, which were dissolved in dimethylsulfoxide (DMSO) or culture medium or their mixture to make 40 μg/mL per each dish, or ESGRO, which was adjusted to make 10^4 unit/mL, was added, and culturing was carried out at 37° C. in 5% […] incubator for 7 days. To the culture medium was added DMSO to make the final concentration 0.1% or lower.
A total RNA was extracted from the ES cells cultured by the method described in (1) ES cell differentiation inhibition assay 2 as described above, by using ISOGEN (K.K. Nippon Gene, Japan made) by the attached method. First, the medium was removed from the dish after the culture, the cells were washed twice with 10 mL of PBS, and dissolved in 1 mL of ISOGENE. After leaving stand at room temperature for 5 minutes, the solution was collected in a 1.5 mL Eppendorf tube. 0.2 mL of chloroform (Wako Pure Chemical Industries made) was added, shaken for 15 seconds and, then, left stand at room temperature for 2 or 3 minutes. The solution was centrifuged at 4° C. at 10000 rpm for 10 minutes by using a micro centrifuge (TOMY SEIKO Corp. made). 400 μL of the supernatant was transferred to a fresh 1.5 mL Eppendorf tube, 500 μL of isopropanol (Wako Pure, Chemical Industries made) was added, and left stand at room temperature for 10 minutes, and, then, centrifuged at 4° C. at 10000 rpm for 10 minutes by using the micro centrifuge. After the supernatant was removed, 1 mL of a 70% aqueous ethanol solution was added followed by shaking and, then, centrifugation was carried out at 4° C. at 10000 rpm for about 5 minutes by using, the micro centrifuge. After the supernatant was removed, a precipitation was dried and dissolved in 30 μL of distilled water to obtain the total RNA solution.
2 μg of the thus obtained total RNA was used as a template to synthesize a cDNA according to the attached protocol by using Deoxyribonuclease I (Amplification Grade)(Invitrogen Corp. made), Oligo(dT) 12-18 primer (Invitrogen Corp. made, 18418-012) and Omniscript reverse transcriptase (QIAGEN Corp, made). Thus, a reaction solution was prepared by adding 1 μL of 10× DNaseI Reaction Buffer, 1 μL of 10× DNaseI (all were made by Invitrogen Corp.) and distilled water to 2 μg of total RNA to make 10 μL in total, and the mixture was incubated at room temperature for 10 minutes. 1 μL of 25 mM EDTA solution was added and heated at 65° C. for 10 minutes. The mixture was cooled to room temperature, and then, 2 μL of 10× Buffer RT, 2 μL of 5 mM dNTP Mix, 2 μL of Oligo(dT) 12-18 primer, 0.25 μL of RNaseOUT (Invitrogen Corp. made, 10777-019) and 1 μL of Omniscript Reverse Transcriptase were added, and RNase-free purified water was added to give the total volume of 20 μL, and the mixture was incubated at 37° C. for 60 minutes to obtain cDNA solution. A portion of the synthesized cDNA obtained in such the way was diluted 5 folds with distilled water, and 2 μL of the solution was used as the template to conduct PCR by using Light Cycler-Fast Start DNA Master SYBR Green I Kit (Roche Diagnostics Corp. made) according to the attached protocol. The expression levels of the Oct-3/4 gene and glyceraldehyde-3-phosphate dehydrogenase (GAPDH) gene as the internal standard were measured. For amplifying the Oct-3/4 gene, sense primer OCT3 up (SEQ ID No.: 1) and antisense primer Oct3 down (SEQ ID No.: 2) were used, and for amplifying the GAPDH gene, sense primer GAPDH up (SEQ ID No.: 3) and antisense primer GAPDH down (SEQ ID No.: 4) were used. The composition of the PCR reaction solution and the reaction condition will be each presented below.

Nanog gene = Nanog gene expression level by real time PCR (ES cell differentiation inhibition assay 3); assay type: cell-based, mouse; conditions: D3ES cells, 4 μg/mL, 1 day, GAPDH internal standard, FIG. 7
Method: For the D3ES cells prepared by the method described in (3) preparation of a mouse ES cell of Example 1, 7.85×10^5 cells were seeded in a 10 cm-diameter cell culture dish coated previously with a 0.1% aqueous gelatin solution to make 10 mL of the ES cell assay medium. The differentiation inhibiting agent B of the present invention in the final concentration of 4 μg/mL or ESGRO in the final concentration of 1×10^3 unit/mL was added to each dish, and culturing was carried out at 37° C. in 5% CO2 incubator for 1 day.
The total RNA was extracted from the ES cell cultured by the method shown in (3) ES cell differentiation inhibition assay 3 as described above by using ISOGEN (K.K. Nippon Gene Corp. Japan made) by the attached method. In this method, the cell was collected in a 15 mL sterilized tube, centrifuged at 1,000 rpm for about 5 minutes by using the table centrifuge (TOMY SEIKO made) to make pellets. The supernatant was removed, the pellets were washed twice with 10 mL of PBS, and then, transferred to a 1.5 mL Eppendorf tube. The pellets were dissolved in 1 ml ISOGENE and left stand at room temperature for 5 minutes and, then, added with 0.2 mL of chloroform (Wako Pure Chemicals), shaken for 15 seconds, and left stand at room temperature for 2 or 3 minutes. Centrifugation was carried out at 4° C. at 10,000 rpm for 15 minutes by using the micro centrifuge (TOMY SEIKO made), 400 μL of the supernatant was transferred to a fresh 1.5 mL Eppendorf tube. 500 μL of isopropanol (Wako Pure Chemicals) was added and the mixture was left stand at room temperature for 10 minutes and, then, was centrifuged at 4° C. at 10,000 rpm for 10 minutes by using the micro centrifuge. The supernatant was removed and, then, 1 mL of a 70% ethanol aqueous solution was added. The mixture was shaken and then was centrifuged at 4° C. at 10,000 rpm for about 5 minutes by using the micro centrifuge. The supernatant was removed and the precipitation was dried and, then, dissolved in 30 μL of distilled water to obtain the total RNA solution.
The cDNA was synthesized by using 2 μg of the total RNA obtained by such the way as the template, using DeoxyribonucleaseI (Amplification Grade) (Invitrogen Corp. made) and SuperScript III First-Strand Synthesis System for RT-PCR (Invitrogen Corp. made, 18080-051) by the attached protocol. In this step, 1 μL of 10× DNaseI Reaction Buffer, 1 μL of 10× DNaseI (all these were of Invitrogen Corp. made) were added to 2 μg of the total RNA to give the total volume of 10 μL by adding distilled water to prepare the reaction solution, and then incubation was carried out at room temperature for 10 minutes. 1 μL of 25 mM EDTA solution was added, and the mixture was heated at 65° C. for 10 minutes and then, cooled to room temperature. 8 μL of the reaction solution was taken out, and 1 μL of […] Oligo(dT) 20 primer and 1 μL of 10 mM dNTP Mix were added, and incubation was carried out at 65° C. for 5 minutes. The reaction solution was placed on ice for 1 minute, and then 2 μL of 10× RT Buffer, 4 μL of 25 mM MgCl2, 2 μL of 0.1 M DTT, 1 μL of RNaseOUT (Invitrogen Corp. made) and 1 μL of SuperScript III RT were added for incubation at 50° C. for 50 minutes. Subsequently, incubation was carried out at 85° C. for 5 minutes, and then the mixture was left stand on ice for 1 min. […] The expression level of the Nanog gene and the glyceraldehyde-3-phosphate dehydrogenase (GAPDH) gene as the internal standard were measured. […]

SMILES: COc1cccc(N=NC(C(N)=O)=C2NC(C)(C)Cc3ccccc32)c1 [D, 2-(3,3-dimethyl-3,4-dihydro-2H-isoquinoline-1-ylidene)-2-(3-methoxy-phenylazo)-acetamide]
- expression of Oct-3/4 gene in comparison with ES cells cultured in the medium without the differentiation inhibiting agent (Oct-3/4 gene; GAPDH internal standard, FIG. 6): significantly promoted
- effect of keeping the expression of the Oct-3/4 gene relative to ESGRO (Oct-3/4 gene; compared with 1,000 units/mL of ESGRO): comparable with 1,000 units/mL of ESGRO
- expression level of Nanog gene in comparison with medium without agent and medium containing 1,000 units/mL of ESGRO (Nanog gene): increased similarly to the differentiation inhibiting agents B
